In data set [1] the test system is apple mildew pathogen Podosphaera leucotricha. Briefly: Podosphaera test (apple)/protective. The data set is classed as in vivo. As to conditions: 240 h, protective, application rate 100 g/ha, evaluation 10 days after inoculation, read-out: efficacy. On the procedure: (§1) Podosphaera test (apple)/protective [table] To produce a suitable preparation of active compound, 1 part by weight of active compound is mixed with the stated amounts of solvent and emulsifier, and the concentrate is diluted with water to the desired concentration. To test for protective activity, young plants are sprayed with the preparation of active compound at the stated application rate. After the spray coating has dried on, the plants are inoculated with an aqueous spore suspension of the apple mildew pathogen Podosphaera leucotricha. The plants are then placed in a greenhouse at about 23° C. and about 70% relative atmospheric humidity.

Data set [2] concerns army worm (Spodoptera frugiperda). Briefly: Spodoptera frugipereda test/synthetic feed. It counts as in vivo. As to conditions: larva (L3) on synthetic feed, concentration of active compound 500 ppm. How it is done:
Spodoptera frugipereda test/synthetic feed [table] To produce a suitable preparation of active compound, 1 part by weight of active compound is mixed with the stated amount of solvent and the stated amount of emulsifier, and the concentrate is diluted with emulsifier-containing water to the desired concentration. A stated amount of the preparation of active compound of the desired concentration is pipetted onto a standardized amount of synthetic feed. In 6 replications, in each case one larva (L3) of the army worm (Spodoptera frugiperda) is placed onto the feed. After the desired period of time, the kill in % is determined. 100% means that all animals have been killed; 0% means that none of the animals have been killed.

The subject of data set [3] is apple scab pathogen Venturia inaequalis. Briefly: Venturia test (apple)/protective. It counts as in vivo. As to conditions: 240 h, protective, application rate 100 g/ha, evaluation 10 days after inoculation, read-out: efficacy. How it is done:
Venturia test (apple)/protective […] To produce a suitable preparation of active compound, 1 part by weight of active compound is mixed with the stated amounts of solvent and emulsifier, and the concentrate is diluted with water to the desired concentration. To test for protective activity, young plants are sprayed with the preparation of active compound at the stated application rate. After the spray coating has dried on, the plants are inoculated with an aqueous conidia suspension of the apple scab pathogen Venturia inaequalis and then remain in an incubation cabin at about 20° C. and 100% relative atmospheric humidity for 1 day. The plants are then placed in a greenhouse at about 21° C. and a relative atmospheric humidity of about 90%.

The next data set has as its system Sphaerotheca fuliginea. Kind of data set: Sphaerotheca test (cucumber)/protective. It counts as in vivo. As to conditions: Podosphaera fuliginea, 168 h, protective, application rate 100 g/ha, evaluation 7 days after inoculation, read-out: efficacy. On the procedure: as §1, with “Sphaerotheca” for “Podosphaera”, “(cucumber)/protective” for “(apple)/protective”, “Sphaerotheca fuliginea.” for “the apple mildew pathogen Podosphaera leucotricha.”

In data set [4] the test system is Erysiphe graminis f.sp. hordei. Kind of data set: Erysiphe test (barley)/protective. The data set is classed as in vivo. As to conditions: Blumeria graminis, 168 h, protective, application rate 500 g/ha, evaluation 7 days after inoculation, read-out: efficacy. How it is done: Erysiphe test (barley)/protective [table] To produce a suitable preparation of active compound, 1 part by weight of active compound is mixed with the stated amounts of solvent and emulsifier, and the concentrate is diluted with water to the desired concentration. To test for protective activity, young plants are sprayed with the preparation of active compound at the stated application rate. After the spray coating has dried on, the plants are dusted with spores of Erysiphe graminis f.sp. hordei. The plants are placed in a greenhouse at a temperature of about 20° C. and a relative atmospheric humidity of about 80% to promote the development of mildew pustules.

In a further data set the test system is Phytophthora infestans. Kind of data set: whole plant or invertebrate. The data set is classed as in vivo. As to conditions: in Solanum lycopersicum, 72 h, read-out: efficacy.
The next data set concerns Leptosphaeria nodorum. Kind of data set: Leptosphaeria nodorum test (wheat)/protective. The data set is classed as in vivo. As to conditions: Parastagonospora nodorum, 240 h, protective, application rate 500 g/ha, evaluation 10 days after inoculation, read-out: efficacy. How it is done: Leptosphaeria nodorum test (wheat)/protective [table] To produce a suitable preparation of active compound, 1 part by weight of active compound is mixed with the stated amounts of solvent and emulsifier, and the concentrate is diluted with water to the desired concentration. To test for protective activity, young plants are sprayed with the preparation of active compound at the stated application rate. After the spray coating has dried on, the plants are sprayed with a spore suspension of Leptosphaeria nodorum. The plants remain in an incubation cabin at 20° C. and 100% relative atmospheric humidity for 48 hours. The plants are placed in a greenhouse at a temperature of about 15° C. and a relative atmospheric humidity of 80%.

Data set [5] relates to green peach aphid (Myzus persicae). Briefly: Myzus test/broad beans. As to conditions: broad bean seedlings dipped, active compound concentration 100 ppm, after 6 days. It counts as in vivo. On the procedure: Myzus test/broad beans [table] To produce a suitable preparation of active compound, 1 part by weight of active compound is mixed with the stated amount of solvent and the stated amount of emulsifier, and the concentrate is diluted with emulsifier-containing water to the desired concentration. Broad bean seedlings (Vicia faba minor) which are infected by the green peach aphid (Myzus persicae) are dipped into a preparation of active compound of the desired concentration and placed into a plastic dish. After the desired period of time, the kill in percent is determined. 100% means that all animals have been killed; 0% means that none of the animals have been killed.

Data set [6] in a line: logP determination by HPLC (EEC Directive 79/831 Annex V.A8). As to conditions: pH 2.

As a reminder, the chromatographic logP is lipophilicity estimated from chromatographic retention. Consider `CO/N=C(/C(=O)OC)c1c(F)cccc1Oc1ncnc(Oc2cccc(Cl)c2C)c1F` [Example 1, methyl {2-[6-(3-chloro-2-methylphenoxy)-5-fluoropyrimidin-4-yloxy]-6-fluorophenyl}methoxyiminoacetate], for which the pest or weed control at 100 g/ha in data set [1] was ≥ 82%; in data set [3] it was ≥ 97%; with Sphaerotheca fuliginea, ≥ 98%. In addition, the kill rate in data set [2] is ≥ 98%. In the data set “physchem” (pH 2, log P (pH 2)), this molecule showed a chromatographic logP of 4.23. The pest or weed control at 500 g/ha in data set [4] was ≥ 98%.
`CNC(=O)/C(=N/OC)c1c(F)cccc1Oc1ncnc(Oc2ccccc2Cl)c1F` [Example 2, 2-{2-[6-(2-chlorophenoxy)-5-fluoropyrimidin-4-yloxy]-6-fluorophenyl}-2-methoxyimino-N-methylacetamide]: the pest or weed control at 100 g/ha in [1] was ≥ 82%; in the data set with Phytophthora infestans it was ≥ 86%; in [3], ≥ 97%; in the data set on Sphaerotheca fuliginea, ≥ 98%. Moreover, in the data set “physchem” (pH 2, log P (pH 2)), the chromatographic logP was 3.1. The pest or weed control at 500 g/ha in the data set with Leptosphaeria nodorum was ≥ 98%.
`CNC(=O)/C(=N/OC)c1ccc(F)cc1Oc1ncnc(Oc2ccccc2C(F)(F)F)c1F` [Example 31]: the pest or weed control at 100 g/ha in [1] is ≥ 82%; in the data set on Phytophthora infestans it was ≥ 86%; in data set [3] it was ≥ 97%; with Sphaerotheca fuliginea it was ≥ 98%. This molecule had a chromatographic logP in the data set “physchem” (logP) of 3.26. Further, the pest or weed control at 500 g/ha in the data set on Leptosphaeria nodorum was ≥ 98%.
With `CNC(=O)/C(=N/OC)c1c(F)cccc1Oc1ncnc(Oc2cccc(Cl)c2C)c1F` [Example 45], the pest or weed control at 100 g/ha in [1] is ≥ 82%; in the data set with Phytophthora infestans, ≥ 86%; in data set [3], ≥ 97%; with Sphaerotheca fuliginea it was ≥ 98%. For the same molecule, the chromatographic logP in the data set “physchem” (logP) turned out to be 3.6. In the data set with Leptosphaeria nodorum, the pest or weed control at 500 g/ha is ≥ 98%.
In the case of `CNC(=O)/C(=N/OC)c1c(F)cccc1Oc1cc(Oc2cccc(Cl)c2Cl)ncn1` [Example 46], the pest or weed control at 100 g/ha in data set [1] is ≥ 82%; with Phytophthora infestans, ≥ 86%; in data set [3] it was ≥ 97%; in the data set with Sphaerotheca fuliginea, ≥ 98%. For the same molecule, the chromatographic logP in the data set “physchem” (logP) came to 3.23. Further, the pest or weed control at 500 g/ha in the data set with Leptosphaeria nodorum was ≥ 98%.
As to `CNC(=O)/C(=N/OC)c1c(F)cccc1Oc1cc(Oc2ccccc2Cl)ncn1` [Example 47], the pest or weed control at 100 g/ha in data set [1] was ≥ 82%; in the data set with Phytophthora infestans, ≥ 86%; in [3], ≥ 97%; in the data set on Sphaerotheca fuliginea, ≥ 98%. The molecule also had a chromatographic logP in the data set “physchem” (logP) of 2.79. Also, in the data set on Leptosphaeria nodorum, the pest or weed control at 500 g/ha was ≥ 98%.
As for `CNC(=O)/C(=N/OC)c1c(F)cccc1Oc1ncnc(Oc2cccc(Cl)c2Cl)c1F` [Example 48], the pest or weed control at 100 g/ha is ≥ 82% in [1], ≥ 86% in the data set with Phytophthora infestans, ≥ 97% in data set [3] and ≥ 98% in the data set with Sphaerotheca fuliginea. Also, the chromatographic logP in “physchem” (logP) is 3.5. Besides, in the data set on Leptosphaeria nodorum, the pest or weed control at 500 g/ha was ≥ 98%.
Regarding `CNC(=O)/C(=N\OC)c1c(F)cccc1CO/N=C(\C)c1cccc(C(F)(F)F)c1` [Example 56], the pest or weed control at 100 g/ha was ≥ 82% in [1], ≥ 86% with Phytophthora infestans, ≥ 97% in [3] and ≥ 98% in the data set with Sphaerotheca fuliginea. Moreover, the chromatographic logP in “physchem” (logP) stood at 3.8. In data set [5], this molecule showed a kill of 100%.
Regarding `CNC(=O)/C(=N/OC)c1c(F)cccc1Oc1cc(Oc2cccc(Cl)c2C)ncn1` [Example 57], the pest or weed control at 100 g/ha in data set [1] was ≥ 82%; in the data set on Phytophthora infestans it was ≥ 86%; in data set [3], ≥ 97%; in the data set on Sphaerotheca fuliginea, ≥ 98%. In “physchem” (logP), this molecule displayed a chromatographic logP of 3.24. In addition, the pest or weed control at 500 g/ha in the data set on Leptosphaeria nodorum was ≥ 98%.
With `CO/N=C(/C(=O)OC)c1c(F)cccc1CBr` [Example (VIII-1), methyl (2-bromomethyl-6-fluorophenyl)methoxyiminoacetate], the “log P (pH 2)” value is 2.87. The same molecule displayed a chromatographic logP in “physchem” (pH 2, log P (pH 2)) of 2.58.
On to `Cc1cccc(F)c1C(=O)C#N` [Example (XX-1), 2-fluoro-6-methylbenzoyl cyanide], for which the chromatographic logP in data set [6] is 2.55.

For the origin of these results see patent US20050124498A1, “Halobenzyl substituted phenylaceto esters and amides and use thereof for prevention of harmful organisms” (priority 2002, published 2005).
